Structures are written as SMILES.

For the assay, the system named is p53 transcription activity. The assay can be described thus: p53 luciferase reporter assay in A375 cells. Type of assay: cell-based, human. The settings on record: 0.5 μM alone, 12 h. On the technique in general: Reporter assays use an easily measured gene product as a stand-in for the process of interest.

Description: Transient transfection: A375 cells were seeded in a culture dish overnight before transfection. p53-luciferase plasmid, and TurboFect reagent were mixed together in Dulbecco's modified eagle medium (DMEM) without FBS and the resulting solution was incubated for 20 min at 37 °C. The mixture was then added to the A375 cells in the wells. The cells were incubated for 12 h at 37 °C in a CO2 incubator before use.
Briefly, A375 cells were seed at a density of 6 × 10^5 cell in a culture dish overnight. The cells were co-transfected with p53-luciferase plasmid in serum-free DMEM medium using TurboFect Transfection Reagent. Then, the transfected cells were seeded in a 24-well plate and treated with an indicated concentration of 1 in 1% FBS medium for 6h. The transfected cells were lysed by the addition of 160 μL Passive Lysis Buffer (PLB). 50 μL of the cell lysates were transferred to a 96-well white plate followed by adding 50 μL of luciferase reporter reagent (LAR). The transcriptional activity was determined by measuring the activity of firefly luciferase in SpectraMax M5 microplate reader (Molecular Devices).

For the compound `CCCS(=O)(=O)Nc1ccc(F)c(C(=O)c2c[nH]c3ncc(-c4ccc(Cl)cc4)cc23)c1F` [vemurafenib, reference compound], the “p53 transcription activity, single agent” value is “negligible effect”.
